How the values were obtained:
[1] = test system: Guinea pigs (Hartley); assay: Test Example 3-1: electrocardiogram and aortic pressure of halothane-anesthetized guinea pigs (FTY720); format: in vivo; conditions: guinea pig
Description: Guinea pigs (Hartley, body weight: 420 g to 650 g, male, obtained from Japan SLC, Inc.) were each anesthetized by intraperitoneally administering thereto sodium thiopental (product of Mitsubishi Tanabe Pharma Corporation) at 50 mg/kg. Next, a tracheal cannula was inserted into each of the guinea pigs. While their body temperature was being maintained at 37° C. with a warming pad, the guinea pigs were allowed to inhale 100% by volume oxygen and 1% by volume vaporized halothane (product of Takeda Pharmaceutical Company Limited.) using an artificial respirator for experimental animals (SN-480-7; product of shimano Co., Ltd.). Here, the artificial respirator for experimental animals was set to a tidal volume of 10 mL/kg and a respiration rate of 60 strokes/min. Next, a cannula for drug administration was inserted to their left femoral vein. In addition, a heparinized catheter for monitoring the blood pressure was inserted to the aorta through the left femoral […]. Then, ECG standard limb II leads was continuously recorded.
Each of the guinea pigs (n=12) of Example 3 was recorded for an electrocardiogram before administration of a drug or a solvent.
FTY720 (product of Sigma-Aldrich Inc.) was dissolved in physiological saline (product of Otsuka Pharmaceutical Factory, Inc.) so as to have a concentration of 0.03 mg/mL.
(§1) After the evaluation of base control, the cannula for drug administration was inserted, and the above-prepared FTY720 solution was intravenously administered to each of the guinea pigs (n=4) of Example 3 for 10 min at a dose of 0.01 mg/kg. These guinea pigs were evaluated for parameters by the following evaluation methods at 5 min, 10 min, 15 min, 20 min, 30 min, 45 min or 60 min after the administration of the FTY720 solution.
FTY720 (product of Sigma-Aldrich Inc.) was dissolved in physiological saline (product of Otsuka Pharmaceutical Factory, Inc.) so as to have a concentration of 0.3 mg/mL.
as §1, with “0.1” for “0.01”
The aortic pressure and the electrocardiogram were monitored using a polygraph system (RM-6000, product of NIHON KOHDEN Co. Ltd.) and analyzed with a full-automated analysis system in real time (WinVAS ver. 3, 1.1R03; product of Physio-Tech Co., Ltd.).
Parameters of the electrocardiogram were measured three times, and the obtained values were averaged. Atrial rate was calculated from PP interval of the electrocardiogram. Ventricular rate was calculated from RR interval of the electrocardiogram.
The measurements in FIGS. 4A to 4E are expressed as mean±SE (n=4). The difference between the parameters was evaluated with one-way repeated measures analysis of variance (ANOVA). It was considered that p<0.05 is statistically significant. In FIG. 4A to 4C and FIG. 4E, “white circle,” “white square” and “white triangle” each mean absence of a significant difference relative to the value of the evaluation of base control (C), and “black circle” and “black square” each mean presence of a significant difference relative to the value of the evaluation of base control (C).
Also, in FIG. 4D, “white circle” means absence of development of atrioventricular block or presence of development of first-degree atrioventricular block, “white square” means presence of development of second-degree atrioventricular block (Wenckebach type), “white triangle” means presence of development of advanced atrioventricular block, “x-mark” means presence of development of third-degree atrioventricular block (complete atrioventricular block), and #1 to 4 refer to each individual.

[2] = test system: human; conditions: 366 cases, 1.25 mg/day, Holter ECG one day after administration; cited from earlier work
[3] = FTY720 0.01 and 0.1 mg/kg/10 min i.v., for 60 min from start
[4] = high-dose 0.1 mg/kg/10 min i.v., n=4

- change in atrial rate [1, 3]: no significant change
- change in QRS width ([1]; high-dose 0.1 mg/kg/10 min i.v.): no significant change
- change in PR interval ([1]; high-dose 0.1 mg/kg/10 min i.v., before development of atrioventricular block): prolonged
- change in ventricular rate ([1]; high-dose 0.1 mg/kg/10 min i.v., from 20 min to 60 min): significant decrease
- individuals that developed Wenckebach-type atrioventricular block [1, 4]: one individual
- change in ventricular rate ([1]; low-dose 0.01 mg/kg/10 min i.v., for 60 min from start): no significant change
Compound: CCCCCCCCc1ccc(CCC(N)(CO)CO)cc1 [FTY720, Fingolimod]
- change in blood pressure (MBP) [1, 3]: no significant change
- correspondence of P wave and R wave in the electrocardiogram ([1]; high-dose 0.1 mg/kg/10 min i.v., 45 min after start): the atrium and the ventricle are contracted independently of each other at their own individual rhythms
- change in QT interval ([1]; high-dose 0.1 mg/kg/10 min i.v., from 45 min to 60 min): prolonged
- individuals that developed complete atrioventricular block [1, 4]: three individuals out of the four individuals
- change in any electrophysiological parameters (PR interval, QRS width, QT interval) ([1]; low-dose 0.01 mg/kg/10 min i.v., at 60 min from start): no significant change
- cases that developed advanced atrioventricular block (2:1 atrioventricular block) [2]: 3.4%
- cases that developed second-degree atrioventricular block (Mobitz type I or type II) [2]: 6.6%
- cases that developed third-degree atrioventricular block (complete atrioventricular block) [2]: 0.3%

From US10750729B2, “Pig for atrioventricular block model, monkey for atrioventricular block model, guinea pig for atrioventricular block model, and use thereof” (Toho University, priority 2012, dated 2020)
